Article PMC8270301, “Novel Facet of an Old Dietary Molecule? Direct Influence of Caffeine on Glucose and Biogenic Amine Handling by Human Adipocytes” (Molecules, 2021)

Key:
[1] = molecular target: T1, primary amine oxidase (SSAO/PrAO/VAP-1) (Homo sapiens, UniProt Q16853); assay: Amplex Red hydrogen peroxide release in tissue homogenate, Lineweaver-Burk plot; assay type: cell-based
T1 construct: gene AOC3; native enzyme in homogenates of human subcutaneous adipose tissue
T1 sequence (Q16853 1-763): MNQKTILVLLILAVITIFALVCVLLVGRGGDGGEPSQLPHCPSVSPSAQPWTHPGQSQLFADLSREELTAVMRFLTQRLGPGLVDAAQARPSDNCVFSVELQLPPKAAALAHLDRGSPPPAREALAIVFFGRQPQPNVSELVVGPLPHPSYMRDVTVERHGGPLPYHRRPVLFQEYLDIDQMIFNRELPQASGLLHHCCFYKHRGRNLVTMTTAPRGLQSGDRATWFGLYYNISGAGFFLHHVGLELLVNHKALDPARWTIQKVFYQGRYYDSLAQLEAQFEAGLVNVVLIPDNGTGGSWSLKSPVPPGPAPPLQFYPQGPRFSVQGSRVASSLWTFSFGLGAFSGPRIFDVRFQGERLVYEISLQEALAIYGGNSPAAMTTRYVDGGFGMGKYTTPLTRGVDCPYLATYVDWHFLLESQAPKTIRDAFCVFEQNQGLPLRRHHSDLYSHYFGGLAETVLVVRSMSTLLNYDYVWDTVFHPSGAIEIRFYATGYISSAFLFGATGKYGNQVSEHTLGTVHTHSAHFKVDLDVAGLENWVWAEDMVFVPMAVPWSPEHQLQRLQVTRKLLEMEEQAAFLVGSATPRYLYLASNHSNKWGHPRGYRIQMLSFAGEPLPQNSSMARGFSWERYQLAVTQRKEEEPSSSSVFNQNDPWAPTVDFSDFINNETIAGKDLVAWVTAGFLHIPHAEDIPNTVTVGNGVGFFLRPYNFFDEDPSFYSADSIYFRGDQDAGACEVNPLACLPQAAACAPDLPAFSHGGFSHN

[2] = molecular target: T1, primary amine oxidase (SSAO/PrAO/VAP-1); assay: Amplex Red hydrogen peroxide assay of benzylamine oxidation in tissue homogenate, Lineweaver-Burk analysis; assay type: biochemical

Row | Structure (SMILES) | Amplex Red hydrogen peroxide release in tissue homogenate, Lineweaver-Burk plot [1] | Ki [2] [µM]
1 | NCc1ccccc1 [benzylamine] | Lineweaver–Burk plot of the inhibition of benzylamine oxidation by increasing doses of caffeine | 
2 | Cn1c(=O)c2c(ncn2C)n(C)c1=O [caffeine, 1,3,7-trimethylxanthine] |  | 880
